{
  "source": "patent US6979747B2",
  "about": "“Antioxidants, preparation processes and their uses” (Centre National de la Recherche Scientifique (CNRS), priority 1999, dated 2005)",
  "key": {"MDMs": {"tested_on": "MDMs", "assay": "Cytotoxicity with respect to MDMs (neutral red)", "assay_type": "cell-based, human", "conditions": "MDMs", "description": "These tests are carried out systematically in parallel with the evaluation of the antiviral activity. In view of the oxidation/reduction capacity of the molecules tested, the test with the tetrazolium salt, which measures the activity of mitochondrial dehydrogenases, cannot be used.\nNeutral red (NR) is a vital dye which makes it possible to measure the viability of adherent cells, such as MDMs. 600 μl of culture supernatant are removed and replaced with 400 μl of an NR solution (0.001% m/v in phosphate buffer, PBS, Boehringer Mannheim), filtered at 0.45 μm. The cells were incubated for 1 h at 37° C. and are subsequently washed (2×1 ml of PBS). The cells are then lysed at −20° C. with 200 μl of a 50% ethanol mixture comprising 1% of glacial acetic acid. The OD is measured twice with 100 μl of solution using a spectrophotometer."}, "HIV-1/Ba-L [1]": {"tested_on": "HIV-1/Ba-L", "assay": "Production of p25 protein in supernatants of MDMs infected with HIV-1/Ba-L (ELISA)", "assay_type": "cell-based", "conditions": "infected MDM cultures", "description": "The assaying of the p25 protein is carried out using the ELISA kit from DuPont de Nemours. 200 μl of the culture supernatant to be tested are placed in a well of a microtitration plate. The addition of 20 μl of lysis buffer releases the viral proteins in the medium. The released antigen attaches to a mouse anti-p25 monoclonal antibody immobilized at the bottom of the wells. After incubating for 2 h at 37° C., 3 washing operations using 5 ml of washing buffer are carried out and then 100 μl of a biotinylated polyclonal antibody which reacts with the immobilized antigen are incubated for 1 h at 37° C. The series of 3 washing operations in the same buffer and with the same volume is again carried out before the addition over 15 min at 37° C. of 100 μl of Raifort-streptavidin peroxidase conjugate which will make it possible to amplify the colorimetric reaction. […] After incubating for 30 min at ambient temperature, the reaction is halted by the addition of 100 μl of 4N sulfuric acid. The OD of the coloring thus obtained is read at […]. This absorbence is directly proportional to the amount of attached antigen. The linear relationship relating the O.D. to the p25 concentration is established by virtue of a standard range produced from a recombinant p25 solution."}, "HIV provirus": {"tested_on": "HIV provirus", "assay": "Quantification of proviral DNAs by PCR (integration of the provirus within the cell genome)", "assay_type": "cell-based", "conditions": "PCR of proviral DNA", "description": "I-152 is composed of MEA and NAC, which are capable of interacting with the early phases of the biological cycle of HIV. It is therefore capable of decreasing the integration of the provirus into the cell genome. In order to measure these effects, the proviral DNAs were quantified by PCR. The cells were lysed using 1 ml of the following lysis solution: 10 mM Tris HCl pH 8; 100 mM of EDTA pH 8; 0.5% of sodium dodecyl sulfate (SDS); 20 μg/ml of DNAse-free bovine pancreatic RNAse. 200 μg/ml of proteinase K are subsequently added to this suspension. The DNAs were subsequently extracted using 1 ml of an ice-cold saturated phenol solution and 1 ml of a […] solution.\nThe viral DNAs were then amplified by means of specific primers of the gag gene (SK01/SK39) and of a standard range of the 8E5 line, a chronically infected line, the cells of which carry a proviral copy. The β-globin gene was used as reporter gene in order to make sure of the quality of the DNA extraction."}, "HIV-1/Ba-L [2]": {"tested_on": "HIV-1/Ba-L", "assay": "Combination of I-152 with AZT in MDMs infected with HIV-1/Ba-L (Chou combination index)", "assay_type": "cell-based", "conditions": "I-152 combined with AZT", "description": "Viral replication was measured by assaying the reverse transcriptase activity in culture supernatants using the RetroSys kit from Innovagen, following the recommendations of the company.\nThe compound I-152 and its derivatives are prepared extemporaneously by being dissolved in dimethyl sulfoxide (DMSO) at the concentration of 100 mM. They are subsequently stored at −20° C. after having been diluted 10 fold in phosphate buffer (PBS).\nThe pro-GSH compounds of the “I-152 family” are preferably administered as adjuvants therapeutic for current antiretrovirals. The inventors have thus attempted to measure in vitro the effects of I-152 with respect to the anti-HIV effectiveness of these molecules. This study was carried out using macrophages derived from human blood monocytes infected by the HIV-1/Ba-L strain and according to the methodology described by J. and T C. Chou for quantifying the synergistic effects, additive or antagonistic, between two molecules."}},
  "data": [
    {"smiles": "CC(=O)N[C@@H](CS)C(=O)NCCSC(C)=O", "note": "[I-152, N-(N-acetyl-L-cysteinyl)-S-acetylcysteamine]", "values": [
      {"measurement": "cytotoxicity (in words)", "setting": "MDMs; 500 μM (10 times the 50% effective dose)", "result": "not cytotoxic"},
      {"measurement": "cytotoxicity at antiviral doses (in words)", "setting": "MDMs; antiviral doses", "result": "not cytotoxic"},
      {"measurement": "production of the p25 protein (in words)", "setting": "HIV-1/Ba-L [1]", "result": "inhibition of the production of the p25 protein"},
      {"measurement": "integration of the provirus (in words)", "setting": "HIV provirus", "result": "inhibits the integration of the provirus"},
      {"measurement": "combination index (CI)", "setting": "HIV-1/Ba-L [2]", "result": "less than 1"},
      {"measurement": "cytotoxicity (in words)", "setting": "PBMCs", "result": "not cytotoxic"}
    ]}
  ]
}
